In the Deep4Chem optical property database:
“And” between values parts separate entries of the source, which are not always exact repeats. Identical values can stand only once.

Assay: solvent given as SMILES
[1] = in O=P(c1ccccc1)(c1ccccc1)c1ccccc1Oc1ccccc1P(=O)(c1ccccc1)c1ccccc1

`N#CC(/N=C/c1ccccc1O)=C(C#N)/N=C/c1ccccc1O` gave an emission maximum (in CC#N) of 553 nm.

Compound `CN1/C(=C/C=C(/C=C/c2sc3ccccc3[n+]2C)c2ccccc2)Sc2ccccc21` has an emission maximum (in CCO) of 676 nm, an emission maximum (in CO) of 679 nm and an emission maximum (in CS(C)=O) of 683 nm. The emission maximum (in O) was 673 nm.

Compound `O=Cc1cc2c(cc3ccc4cccc5ccc2c3c45)[nH]1` has an emission maximum (in CCOC(C)=O) of 438 nm.

In the case of `COc1ccc(C2=[N+]3C(=Nc4c(-c5ccc6ccccc6c5)c(Br)c(-c5ccc(OC)cc5)n4[B-]3(F)F)C(c3ccc4ccccc4c3)=C2Br)cc1`, the emission maximum (in ClCCl) is reported as 734 nm.

Compound `CN(C)c1ccc(-c2ccc(-c3cc(-c4ccccc4)c(-c4ccccc4)c(-c4ccccc4)c3-c3ccccc3)s2)cc1` has an emission maximum (in ClC(Cl)Cl) of 419 nm.

Compound `N#Cc1cc(/C=C/c2ccc(N(c3ccccc3)c3ccccc3)cc2)ccc1/C=C/c1ccc(/C=C/c2ccc(N(c3ccccc3)c3ccccc3)cc2)cc1C#N` has an emission maximum (in ClCCl) of 614 nm.

Compound `CC(C)(C)c1ccc2c(c1)oc1nc3oc4ccc(-n5c6ccccc6c6ccccc65)cc4c3cc12` has an emission maximum (in ClC(Cl)Cl) of 417 nm.

For `CCn1c(-c2ccc(N(c3ccccc3)c3cccc4ccccc34)cc2)c(-c2ccc3ccccc3c2)c(-c2ccc3ccccc3c2)c1-c1ccc(N(c2ccccc2)c2cccc3ccccc23)cc1`, the emission maximum (in CCOC(C)=O) was 434 nm.

With `CCCCCCCC(=O)Oc1ccc2c3cccc4c(OC(=O)CCCCCCC)ccc(c5cccc1c52)c43` the emission maximum (in C1CCOC1) was 454.01 nm, the emission maximum (in Cc1ccccc1) was 456.99 nm and the emission maximum (in ClC(Cl)(Cl)Cl) was 456.99 nm. For the same compound, the emission maximum (in ClC(Cl)Cl) was 456.01 nm, the emission maximum (in ClCCl) was 455 nm and the emission maximum (in c1ccncc1) was 459.02 nm.

For `O=C1Nc2ccccc2/C1=C/C(=O)c1ccccc1`, the emission maximum (in C1CCCCC1) was 374 nm, the emission maximum (in C1COCCO1) was 396 nm and the emission maximum (in CC#N) was 398 nm. It also gave an emission maximum (in CC(C)(C)O) of 407 nm, an emission maximum (in CC(C)O) of 412 nm and an emission maximum (in CCCCCC) of 374 nm. It also gave an emission maximum (in CCCCO) of 411 nm, an emission maximum (in CCOC(C)=O) of 394 nm and an emission maximum (in CN(C)C=O) of 404 nm. It also gave an emission maximum (in CO) of 412 nm, an emission maximum (in ClCCl) of 398 nm and an emission maximum (in O) of 424 nm.

With `CC1(C)C(/C=C/C=C/C=C/C=C2/N(CCCCCC(=O)O)c3ccc(S(=O)(=O)[O-])cc3C2(C)C)=[N+](CCCCS(=O)(=O)[O-])c2ccc(S(=O)(=O)[O-])cc21` the emission maximum (in CO) was 774 nm and the emission maximum (in O) was 771 nm.

For `CC1(C)c2ccccc2N(c2ccc(-c3nc4cccc5c4n3-c3ccccc3C5(C)C)cc2)c2ccccc21`, the emission maximum (in Cc1ccccc1) was 450 nm and the emission maximum [1] was 449 nm.

`CCN1/C(=C\C2=C([O-])C(=C/C3=[N+](CC)c4ccccc4C3(C)C)/C2=O)C(C)(C)c2ccccc21` showed an emission maximum (in ClC(Cl)Cl) of 643 nm.

`COc1nc(Nc2cc3ccc4cccc5ccc(c2)c3c45)nc(OC)n1` showed an emission maximum (in CC#N) of 393 nm, an emission maximum (in CCCCOCCCC) of 393 nm and an emission maximum (in CO) of 392 nm.

Work on `CC(C)(C)NC(=O)c1ccc(Br)c2ccc3c4ccccc4c4ccccc4c3c12` yielded an emission maximum (in ClCCl) of 388 nm.

With `CC(C)(C)/C=C1\C=C(c2ccccc2)C=C1c1ccccc1` the emission maximum (in C1CCOC1) was 460 nm.

`CCCCCCCCCCC(CCCCCCCCCC)Cn1c2cc(-c3ccc(C(C)(C)C)cc3)c3cccc4c5ccc6c7cc(-c8cc(C(C)(C)C)cc(C(C)(C)C)c8)n8c7c(c7cc1c(c5c76)c2c34)=C1C=CC(c2cc(C(C)(C)C)cc(C(C)(C)C)c2)=[N+]1[B-]8(F)F` showed an emission maximum (in Cc1ccccc1) of 830 nm.

For `CC1(C)c2ccccc2N(c2ccc3c(c2)C(C)(C)c2cc(N4c5ccccc5C(C)(C)c5ccccc54)ccc2S3(=O)=O)c2ccccc21`, the emission maximum (in C1CCOC1) was 473.1 nm, the emission maximum (in CC#N) was 526.32 nm and the emission maximum (in Cc1ccccc1) was 451.46 nm and 453.62 nm. It also gave an emission maximum (in ClCCl) of 504 nm.

In the case of `N#C/C(=C\c1ccc(/C=C/c2ccc(N(c3ccccc3)c3ccccc3)cc2)s1)C(=O)O`, the emission maximum (in ClCCl) is reported as 676 nm.

Compound `c1ccc(B2Nc3cc4c(cc3-c3sccc32)NB(c2ccccc2)c2ccsc2-4)cc1` has an emission maximum (in ClCCl) of 412 nm.

`CC1=C(c2cccs2)C(C)=[N+]2C1=C(c1ccc(O)cc1)c1c(C)c(-c3cccs3)c(C)n1[B-]2(F)F` gave an emission maximum (in CO) of 602 nm, an emission maximum (in Cc1ccccc1) of 604 nm and an emission maximum (in ClCCl) of 605 nm.

`COc1ccc(-c2cnc3nn4ccccc4c3n2)cc1` showed an emission maximum (in C1CCOC1) of 455 nm.

Work on `CC(C)c1cccc(C(C)C)c1-n1c(=O)c2cc3nc(-c4ccccc4)c4cc5c(=O)n(-c6c(C(C)C)cccc6C(C)C)c(=O)c6cc7c(-c8ccccc8)nc8cc(c1=O)c2c1c3c4c(c56)c7c81` yielded an emission maximum (in ClC(Cl)Cl) of 488 nm.

For `BrC1=CN2C[n+]3cc(Br)c4ccccc4c3N=C2c2ccccc21`, the emission maximum (in CO) was 502 nm.

`c1ccc(N(c2ccccc2)c2ccc(-c3ccc4c(c3)C3(c5ccccc5Sc5ccccc53)c3cc(-c5ccc(N(c6ccccc6)c6ccccc6)cc5)ccc3-4)cc2)cc1` gave an emission maximum (in ClCCl) of 457 nm and an emission maximum (in c1cc(-n2c3ccccc3c3ccccc32)cc(-n2c3ccccc3c3ccccc32)c1) of 438 nm.

For `Cc1ccc(-c2c3nc(c(-c4ccc(C)cc4)c4ccc([nH]4)c(-c4ccc(OC(=O)C(C)c5ccc(Oc6ccccc6)cc5)cc4)c4nc(c(-c5ccc(C)cc5)c5ccc2[nH]5)C=C4)C=C3)cc1` (configuration not stated), the emission maximum (in ClCCl) was 653 nm.

In the case of `CC1(C)c2ccccc2-n2c(-c3ccc(-n4c5ccc(-n6c7ccccc7c7ccccc76)cc5c5cc(-n6c7ccccc7c7ccccc76)ccc54)cc3)nc3cccc1c32`, the emission maximum (in Cc1ccccc1) is reported as 401 nm and the emission maximum [1] is reported as 409 nm.
